“And” between values parts separate entries of the source, which are not always exact repeats. Identical values can stand only once. Like-named read-outs stand apart in the source and are kept apart here.
Assays:
[1] = system: MDA-MB-231BR (231BR); assay: CCK8 anticancer activity / cytotoxicity test, 231BR; type: cell-based
Procedure: (§1) The IC50 was calculated by SPSS statistics (IBM). […] All cytotoxicity tests were performed in six biological replicates.
(§2) The anticancer activity against 231BR is of highest interest. […] Figure 3 depicts the anticancer activities of these compounds.

[2] = system: HTB22; assay: CCK8 anticancer activity / cytotoxicity test, HTB22; type: cell-based; settings: read-out: Approximate IC50, primary screening
Procedure: as §1, §2

[3] = system: CRL-1620 (CRL); assay: CCK8 anticancer activity / cytotoxicity test, CRL; type: cell-based
[4] = system: MDA-MB-231 (231); assay: CCK8 anticancer activity / cytotoxicity test, 231; type: cell-based, human
[5] = system: HTB131; assay: CCK8 anticancer activity / cytotoxicity test, HTB131; type: cell-based
[6] = system: MCF10A; assay: CCK8 cytotoxicity test on normal cell line MCF10A
Procedure: (§3) MDA-MB-231 (231) and HTB131 were grown with RPIM-1640 medium (with 10% Fetal Bovine Serum and 2% Penicillin-Streptomycin Solution). MDA-MB-231BR (231BR), CRL-1620 (CRL), and MCF10A were grown with DMEM (with 10% Fetal Bovine Serum and 2% Penicillin-Streptomycin Solution). HTB22 was grown with EMEM (with 10% Fetal Bovine Serum and 2% Penicillin-Streptomycin Solution). Cell lines were taken out from liquid nitrogen and thawed in a 37°C water bath. After thawing, cell cultures were transferred to 75 cm^2 flasks and incubated at 37°C with 5% CO2 for 4–7 days. After reaching 80% of cell confluence, cells were ready for subculturing or testing.
(§4) Anticancer activity tests were performed using a Cell Counting Kit-8 (CCK8, SigmaAldrich) following manufacturer’s instruction ([Shen et al., 2016]). Briefly, 100 µl of diluted cell suspension (approximately 10000 cells) was transferred to 96-well plate, incubated at 37°C with 5% CO2 for 24 h. Then, the compounds were diluted into a serial of concentrations in DMSO. Next, 0.5 µl of diluted compounds were added to 100 µl of cell medium and gently mixed, resulting in the final concentration of DMSO at 0.5%. 100 µl of the compound contained medium were then used to replace the original medium and incubated at 37°C for 48 h. After incubation with compounds, 10 µl of CCK8 reagent was added to each well and mixed by gently tapping the plate. Then, the plate was incubated at 37°C for 2–4 h until the orange color was dark enough to measure. The plate was measured using a Multiskan microplate reader (Fisher Scientific) at 450 nm. The IC50 was calculated by SPSS statistics (IBM). […] All cytotoxicity tests were performed in six biological replicates. Each compound was performed two cycles of screening: primary screening using 10 times serial dilution to determine the approximate concentration and then secondary screening using a narrow concentration range to acquire the accurate IC50.
(§5) The newly synthesized molecules in which their binding affinities were predicted in silico were tested on five different breast cancer lines, MDA-MB-231 (231), MDA-MB-361 (361), HTB131, HTB22, and MDA-MB-231BR (231BR), and one brain cancer cell line, CRL-1620 (CRL). […] Among these cell lines, 231BR attracted most of our interest because it is a brain metastatic specific breast cancer cell line that has 100% rate of brain metastasis and cannot migrate to any other organs ([Yoneda et al., 2001]). The anticancer capacities of each compound were first screened by 10 times dilution to generate different molar concentrations ranging in 5 orders of magnitudes. This wide concentration range was applied for primary screening (Supplementary Table S3) to narrow down the targets. The approximate IC50 was estimated in the primary screening step and used to design the concentration range of the secondary cytotoxicity tests (Supplementary Table S4). […] Anticancer drug taxol (paclitaxel) was used as the reference to estimate the efficacy of each compound. […] The anticancer activity against 231BR is of highest interest. Meanwhile, the same treatments were performed against the normal breast cell line, MCF10A, to test their cytotoxicity. […] A negative logarithm of IC50 was applied to represent the corresponding anticancer activity.

[7] = system: MDA-MB-361 (361); assay: CCK8 anticancer activity / cytotoxicity test, 361; type: cell-based
Procedure: as §1, §2

[8] = CCK8 cytotoxicity test on normal cell line MCF10A; settings: human
Procedure: as §3, §4, §5

[9] = 231BR, 48 h, 10 times serial dilution, read-out: Approximate IC50, primary screening
[10] = HTB22, 48 h, 10 times serial dilution
[11] = CRL, 48 h, 10 times serial dilution, read-out: Approximate IC50, primary screening
[12] = Homo sapiens, MDA-MB-231; 231, 48 h, 10 times serial dilution; read-out: Approximate IC50, primary screening
[13] = HTB131, 48 h, 10 times serial dilution, read-out: Approximate IC50, primary screening
[14] = Homo sapiens, MCF-10A, 48 h, read-out: Approximate IC50, primary screening
[15] = Homo sapiens, MDA-MB-361, 361, 48 h, 10 times serial dilution, read-out: Approximate IC50, primary screening
[16] = Homo sapiens, MDA-MB-231; 231, 48 h, narrow concentration range; read-out: IC50, secondary cytotoxicity test
[17] = HTB131, 48 h, narrow concentration range, read-out: IC50, secondary cytotoxicity test
[18] = 231BR, 48 h, narrow concentration range, read-out: IC50, secondary cytotoxicity test
[19] = CRL, 48 h, narrow concentration range, read-out: IC50, secondary cytotoxicity test
[20] = 48 h, read-out: Approximate IC50, primary screening
[21] = 48 h, read-out: IC50, secondary cytotoxicity test

CCC1=NC(=Cc2[nH]c(-c3cccc4cc[nH]c34)cc2OC)C=C1.CCC1=NC(=Cc2[nH]c(-c3cccc4cc[nH]c34)cc2OC)C=C1.F[P-](F)(F)(F)(F)F.[Cu+] [Compound C15]
IC50 [1, 9]: 31900 nM

CCC1=NC(=Cc2[nH]c(-c3cn[nH]c3)cc2OC)C=C1.CCC1=NC(=Cc2[nH]c(-c3cn[nH]c3)cc2OC)C=C1.F[P-](F)(F)(F)(F)F.[Cu+] [Compound C8]
IC50 [1, 9]: 48500 nM

CCC1=N/C(=C\c2[nH]c(-c3ccc4[nH]ccc4c3)cc2OC)C=C1 [Compound L14]
IC50 [2, 10]: > 79000 nM | IC50 [3, 11]: > 79000 nM

CC(=O)O[C@H]1C(=O)[C@@]2(C)[C@H]([C@H](OC(=O)c3ccccc3)[C@]3(O)C[C@H](OC(=O)[C@H](O)[C@@H](NC(=O)c4ccccc4)c4ccccc4)C(C)=C1C3(C)C)[C@]1(OC(C)=O)CO[C@@H]1C[C@@H]2O [Taxol, paclitaxel, reference compound]
IC50 [4, 12]: 21.3 nM | IC50 [5, 13]: 57 nM | IC50 [1, 9]: 39 nM | IC50 [6, 14]: > 7500 nM | times lower cytotoxicity on normal cell line ([6]; normal cell line MCF10A relative to 231BR): more than 700 times | IC50 [3, 11]: 28 nM | IC50 [7, 15]: > 7500 nM

CCC1=NC(=Cc2[nH]c(-c3ccn[nH]3)cc2OC)C=C1.CCC1=NC(=Cc2[nH]c(-c3ccn[nH]3)cc2OC)C=C1.F[P-](F)(F)(F)(F)F.[Cu+] [Compound C9]
IC50 [5, 13]: 10200 nM

CCC1=N/C(=C\c2[nH]c(-c3ccc4cc[nH]c4c3)cc2OC)C=C1 [Compound L13]
IC50 [4, 16]: 3490 nM | IC50 [5, 17]: 12600 nM | IC50 [1, 9]: 3100 nM | IC50 [1, 18]: 5060 nM | IC50 at 48 h ([8]; MCF10A normal breast cells): 3700 nM | IC50 [3, 19]: 6530 nM

CCC1=NC(=Cc2[nH]c(-c3ncc[nH]3)cc2OC)C=C1.CCC1=NC(=Cc2[nH]c(-c3ncc[nH]3)cc2OC)C=C1.F[P-](F)(F)(F)(F)F.[Cu+] [Compound C10]
IC50 ([4]; 231, 48 h, narrow concentration range; read-out: IC50, secondary cytotoxicity test): 2860 nM | IC50 [5, 17]: 2170 nM | IC50 [1, 18]: 2200 nM | IC50 ([6]; read-out: IC50, secondary cytotoxicity test, MCF10A normal cell line, 48 h, Table S4): 1400 nM | IC50 [3, 19]: 1600 nM

CCC1=NC(=Cc2[nH]c(-c3cccn3C(=O)OC(C)(C)C)cc2OC)C=C1 [L ^7]
IC50 [4]: 75.8 nM | IC50 [1]: 46.3 nM | IC50 [6]: 3390 nM | times lower cytotoxicity on normal cell line [6]: more than 80 times

CCC1=NC(=Cc2[nH]c(-c3ccc4[nH]ccc4c3)cc2OC)C=C1.CCC1=NC(=Cc2[nH]c(-c3ccc4[nH]ccc4c3)cc2OC)C=C1.F[P-](F)(F)(F)(F)F.[Cu+] [Compound C14]
anticancer activity increase of copper(I) complex compared with its ligand ([1]; 231BR, C14 compared with L14): 5.9 times | IC50 ([6]; read-out: Approximate IC50, primary screening, MCF10A normal cell line, 48 h, 10 times serial dilution): > 385000 nM | IC50 [3, 11]: 38300 nM

CCC1=N/C(=C\c2[nH]c(-c3ccn[nH]3)cc2OC)C=C1 [Compound L9]
IC50 [1, 9]: > 168000 nM | IC50 [2, 10]: > 168000 nM | IC50 [3, 11]: > 168000 nM

CCCCCC1=C/C(=C/c2[nH]c(-c3ccc[nH]3)cc2OC)N=C1C [Ps, Prodigiosin]
IC50 ([4]; Homo sapiens, MDA-MB-231, 48 h, read-out: Approximate IC50, primary screening): 750 to 7500 nM | IC50 ([4]; Homo sapiens, MDA-MB-231, 48 h, read-out: IC50, secondary cytotoxicity test): 0.511 µg/mL and 1.58 µM | IC50 [5, 20]: 750 to 7500 nM | IC50 [5, 21]: 2.81 µM and 0.91 µg/mL | IC50 ([1]; 48 h, read-out: IC50, secondary cytotoxicity test, 231BR, 48 h): 0.312 µg/mL | IC50 ([1]; 48 h, read-out: IC50, secondary cytotoxicity test, 231BR, 48 h, narrow concentration range): 963 nM | IC50 ([2]; 48 h): > 75000 nM | IC50 [6, 14]: 7500 nM | IC50 at 48 h [8]: 8.75 µM and 2.84 µg/mL | IC50 [3, 20]: 750 to 7500 nM | IC50 [3, 21]: 4.64 µM and 1.5 µg/mL | IC50 ([7]; Homo sapiens, MDA-MB-361, 48 h, read-out: Approximate IC50, primary screening, 361, 48 h, 10 times serial dilution): > 7500 nM | IC50 ([7]; Homo sapiens, MDA-MB-361, 48 h, read-out: IC50, secondary cytotoxicity test, 361, 48 h, Table S4): > 75000 nM | IC50 ([7]; Homo sapiens, MDA-MB-361, 48 h, read-out: IC50, secondary cytotoxicity test, 361, 48 h, increased drug concentration): 228000 nM | IC50 ([7]; Homo sapiens, MDA-MB-361, 48 h, read-out: IC50, secondary cytotoxicity test, 361, 48 h, increased drug concentration (mg/mL)): 0.074 mg/mL

CCC1=N/C(=C\c2[nH]c(-c3ncc[nH]3)cc2OC)C=C1 [Compound L10]
IC50 [1, 9]: 285000 nM

CCC1=N/C(=C\c2[nH]c(-c3cccn3C(=O)OC(C)(C)C)cc2OC)C=C1 [Compound L7]
IC50 ([4]; Homo sapiens, MDA-MB-231, 48 h; read-out: IC50, secondary cytotoxicity test): 0.0278 µg/mL | IC50 [4, 12]: 75 to 750 nM | IC50 [4, 16]: 75.8 nM | IC50 [5, 13]: 75 to 750 nM | IC50 [5, 17]: 139 nM | IC50 ([5]; HTB131, 48 h, read-out: IC50, secondary cytotoxicity test): 0.0512 µg/mL | IC50 [1, 9]: 75 nM | IC50 [1, 18]: 46.3 nM | IC50 ([1]; 231BR, 48 h, read-out: IC50, secondary cytotoxicity test): 0.017 µg/mL | IC50 [2, 10]: 750 to 7500 nM | IC50 [6, 14]: 75 to 750 nM | IC50 at 48 h ([8]; MCF10A normal breast cells): 3930 nM | IC50 [3, 11]: 750 to 7500 nM | IC50 [3, 19]: 409 nM | IC50 ([3]; CRL, 48 h, read-out: IC50, secondary cytotoxicity test): 0.15 µg/mL | IC50 ([7]; Homo sapiens, MDA-MB-361, 48 h, read-out: IC50, secondary cytotoxicity test): 0.00212 mg/mL | IC50 [7, 15]: 750 to 7500 nM | IC50 ([7]; Homo sapiens, MDA-MB-361, 361, 48 h, Table S4, read-out: IC50, secondary cytotoxicity test): 5790 nM

COc1ccc(-c2ccc3ccc4ccc(-c5ccc(OC)cc5)nc4c3n2)cc1.Cc1cc2ccc1OCCOCCOCCOCCOCCOc1ccc(cc1C)-c1ccc3ccc4ccc-2nc4c3n1.F[P-](F)(F)(F)(F)F.[Cu+] [Compound C1]
IC50 [4]: 403 nM | IC50 [5]: 228 nM | IC50 [1]: 597 nM | IC50 [1, 9]: < 10000 nM | IC50 [6]: 1000 nM | IC50 [3]: 315 nM | IC50 [7]: 6500 nM

CCC1=N/C(=C\c2[nH]c(-c3cccc4cc[nH]c34)cc2OC)C=C1 [Compound L15]
IC50 ([1]; 48 h, 231BR, 48 h, 10 times serial dilution, read-out: Approximate IC50, primary screening): 32000 nM
